Experimental findings from US20020169154A1, “Novel methods and compositions involving trk tyrosine kinase inhibitors and antineoplastic agents” (Cephalon, Inc., priority 2001, published 2002) are described below.

This assay concerns human pancreatic ductal adenocarcinoma (PDAC) xenografts (Colo-357). Kind of assay: Survival of nude mice with orthotopically implanted human PDAC xenografts. The settings on record: orthotopic PDAC, female nu/nu mice, (I-a-ii) 10 mg/kg/dose s.c. BID five days a week, gemcitabine 100 mg/kg/dose i.p. twice per week, combination: both regimens; for mean survival time (days of dosing to death): vehicle 58, untreated 55 days. The format is in vivo. The procedure: The compound of formula (I-a-ii) was formulated at 3.44 mg/mil in a vehicle of 40% polyethylene glycol (PEG) 1000 (Spectrum, Los Angeles, Calif.), 10% povidone C30 (ISP, Boudbrook, N.J.), and 2% benzyl alcohol (Specturm, Los Angeles, Calif.) in sterile injectable water.
Gemcitabine HCl (Gemzar) was obtained from Eli Lilly and Co. (Indianapolis, Ind.) as a sterile, lyophilized powder formulated with mannitol and sodium acetate, and resuspended to a concentration of 1.0 mg/ml with 0.9% sodium chloride, pH 7.0. Solutions of gemcitabine were freshly prepared for each day of dosing and filter sterilized prior to administration.
Human pancreatic ductal adenocarcinoma (PDAC) xenografts were obtained from the left flanks of nude mice that had been injected with 2×10^6 Colo-357 human pancreatic carcinoma cells. Colo-357 human PDAC cells were obtained from the American Type Culture Collection (ATCC) and grown to subconfluency in Minimal Essential Medium supplemented with 10% fetal bovine serum and 1% penicillin/streptomycin. Cells were MAP and mycoplasma tested by a commercial laboratory (Bio Reliance Corp.) prior to use. Xenograft tumors were harvested and carefully sectioned into 2×2 mm^2 fragments in a laminar flow hood using sterile technique (PNAS 89:5645-49, 1992; Cancer Res. 55:4670-75, 1995). Netrotic areas of the tumors were removed and discarded. The 2×2 mm tumor tissue fragments were then placed in sterile, undiluted Matrigel and ice for 60 minutes prior to implantation. (Cancer Res. 55:4670-75, 1995).
At approximately 8 weeks of age female nu/nu mice were anesthetized with a mixture of ketamine/xylazine given by IM injection. Following establishment of satisfactory anesthesia, a left lateral laparotomy was performed using aseptic technique, and the spleen and pancreas exteriorized by gentle traction. Two of the 2×2 mm^2 tumor xenograft fragments prepared as described above were anchored to the posterior surface of the splenic portion of the pancreas of each mouse with a 6-0 Prolene suture (Cancer Res. 56:5713-19, 1996; J. Surg. Oncol. 40:261-265, 1989). The abdominal incision was closed with 6-0 Vicryl and the skin closed with skin staples. Mice were observed daily for any signs of infection of the incision line and, following removal of the skin staples, had abdominal palpation performed twice weekly. Establishment of the orthotopic phenotype with diffuse peritoneal spread was accomplished through three serial passes of tumor tissue.
Seven days following surgical implantation of serially passed PDAC tumor tissue, mice were randomized into five different treatment groups. Untreated mice (n=5) received no vehicle or drug treatments. […]
On the technique in general: A xenograft is tissue or cells of one species grown in another, often human tumour cells in immunodeficient mice.

As for `C[C@@]12OC(C[C@@]1(O)CO)n1c3ccccc3c3c4c(c5c6ccccc6n2c5c31)CNC4=O` [formula (I-a-ii)], the “survival relative to controls or monotherapy (Kaplan-Meier-Wilcoxon), in words” value is given as “trend toward improved overall survival relative to administration of controls, but the trend was not significant” and the “mean survival time (days of dosing to death)” value worked out at 63 days.

For `Nc1ccn([C@@H]2O[C@H](CO)[C@@H](O)C2(F)F)c(=O)n1` [gemcitabine, 2′,2′-difluorodeoxycytidine], the “survival relative to controls or monotherapy (Kaplan-Meier-Wilcoxon), in words” value was “prolonged survival relative to the administration of controls” and the “mean survival time (days of dosing to death)” value is 97 days.
